Measurements as given in ChEMBL document CHEMBL3758171 (Bioorg Med Chem, 2016).

Key:
[1] = biological target: Carbonic anhydrase 2 (Homo sapiens, UniProt P00918); assay: Inhibition of human recombinant carbonic anhydrase 2 preincubated for 15 mins by stopped flow CO2 hydration assay
[2] = biological target: Carbonic anhydrase 9 (Homo sapiens, UniProt Q16790)
[3] = biological target: Carbonic anhydrase 1 (Homo sapiens, UniProt P00915); assay: Inhibition of human recombinant carbonic anhydrase 1 preincubated for 15 mins by stopped flow CO2 hydration assay
[4] = biological target: Carbonic anhydrase 12 (Homo sapiens, UniProt O43570); assay: Inhibition of human recombinant carbonic anhydrase 12 preincubated for 15 mins by stopped flow CO2 hydration assay
Sequence of Carbonic anhydrase 12 (O43570 whole entry): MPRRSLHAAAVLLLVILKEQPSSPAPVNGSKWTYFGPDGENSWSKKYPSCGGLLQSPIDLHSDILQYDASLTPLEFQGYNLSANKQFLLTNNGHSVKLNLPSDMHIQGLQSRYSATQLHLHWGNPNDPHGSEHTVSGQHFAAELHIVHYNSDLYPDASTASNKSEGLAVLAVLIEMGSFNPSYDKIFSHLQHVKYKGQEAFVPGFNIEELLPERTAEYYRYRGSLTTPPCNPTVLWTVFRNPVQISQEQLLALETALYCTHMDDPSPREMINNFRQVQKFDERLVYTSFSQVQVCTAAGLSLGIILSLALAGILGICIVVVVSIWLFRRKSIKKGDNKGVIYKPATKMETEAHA

Sequence of Carbonic anhydrase 1 (P00915 whole entry): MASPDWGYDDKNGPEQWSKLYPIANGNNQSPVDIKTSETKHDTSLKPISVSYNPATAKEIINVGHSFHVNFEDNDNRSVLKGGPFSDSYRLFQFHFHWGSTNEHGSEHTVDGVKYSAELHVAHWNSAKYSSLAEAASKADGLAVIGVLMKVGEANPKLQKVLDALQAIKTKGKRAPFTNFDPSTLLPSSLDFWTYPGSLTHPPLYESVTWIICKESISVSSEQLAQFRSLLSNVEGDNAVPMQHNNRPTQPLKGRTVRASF

SMILES | Ki [1] [µM] | Ki [2] [µM] | Ki [3] [µM] | Ki [4] [µM]
O=C1c2ccccc2S(=O)(=O)N1Cc1cccc(C(F)(F)F)c1 | > 10 | 0.019 | > 10 | 0.017
O=C1NCc2ccccc21 | > 10 | 0.174 | > 10 | 0.0041
Cc1ccccc1CN1C(=O)c2ccccc2S1(=O)=O | > 10 | 0.221 | 1.37 | 0.016
O=C(O)CN1C(=O)c2ccccc2C1=O | > 10 | 0.223 | > 10 | 0.0043
CC1=CC(OCC(=O)c2ccc(Cl)cc2Cl)=NS(=O)(=O)O1 | > 10 | 0.265 | > 10 | 0.0055
CC1=CC(=O)N(Cc2ccc(F)cc2)S(=O)(=O)O1 | > 10 | 0.261 | > 10 | 0.0049
O=C1c2ccccc2S(=O)(=O)N1Cc1ccc(F)cc1 | > 10 | 0.539 | – | 0.041
O=C1c2ccccc2S(=O)(=O)N1Cc1ccccc1C(F)(F)F | > 10 | 0.616 | – | 0.015
CC1=CC(OCC(=O)c2ccc(Br)cc2)=NS(=O)(=O)O1 | > 10 | 0.196 | – | 0.0036
CC1=CC(=O)N(CC(=O)c2ccc(-c3ccccc3)cc2)S(=O)(=O)O1 | > 10 | 0.026 | > 10 | 0.004
O=C1c2ccccc2S(=O)(=O)N1Cc1ccc([N+](=O)[O-])cc1 | > 10 | 1.17 | – | 0.029

Second part, the compound after the results:

Ki [1] [µM] | Ki [2] [µM] | Ki [3] [µM] | Ki [4] [µM] | SMILES
> 10 | 0.184 | – | 0.026 | Cc1cccc(CN2C(=O)c3ccccc3S2(=O)=O)c1
> 10 | 1.57 | – | 0.006 | COc1cccc(C(=O)CN2C(=O)c3ccccc3S2(=O)=O)c1
> 10 | 0.023 | 1.11 | 0.041 | O=C(CN1C(=O)c2ccccc2S1(=O)=O)c1ccc(F)cc1
> 10 | 0.018 | > 10 | 0.004 | O=C1c2ccccc2S(=O)(=O)N1Sc1ccccc1[N+](=O)[O-]
> 10 | 0.234 | > 10 | 0.0051 | Cc1ccc(CN2C(=O)c3ccccc3S2(=O)=O)cc1
> 10 | 0.191 | 1.48 | 0.0039 | O=C(CN1C(=O)c2ccccc2S1(=O)=O)c1ccc(Cl)cc1Cl
> 10 | 0.051 | – | 0.0047 | O=C1c2ccccc2S(=O)(=O)N1Cc1ccc(C(F)(F)F)cc1
> 10 | 0.239 | > 10 | 0.0045 | CC1=CC(=O)N(Cc2ccc(Cl)cc2)S(=O)(=O)O1
> 10 | 0.21 | > 10 | 0.0043 | CC1=CC(=O)N(Cc2ccc([N+](=O)[O-])cc2)S(=O)(=O)O1
> 10 | 0.019 | – | 0.0044 | O=C1c2ccccc2S(=O)(=O)N1Cc1ccc(Cl)cc1
> 10 | – | > 10 | 0.0056 | COc1cccc(C(=O)CN2C(=O)C=C(C)OS2(=O)=O)c1
0.14 | 0.027 | – | 0.0041 | CC1=CC(=O)N(CC(=O)c2ccc(C#N)cc2)S(=O)(=O)O1
> 10 | 0.022 | > 10 | 0.0043 | O=C1c2ccccc2S(=O)(=O)N1Cc1ccc(Br)cc1
1.75 | 2.48 | – | 0.0039 | CC1=CC(=O)N(CC(=O)c2ccc([N+](=O)[O-])cc2)S(=O)(=O)O1
78 | – | 110 | – | O=C(O)CN1C(=O)c2ccccc2S1(=O)=O
